According to patent publication US8394848B2, “Compounds that modulate intracellular calcium” (Calcimedica, Inc., priority 2008, dated 2013):

Tested on: JR251 or RBL cells
Test: Store-operated calcium entry, either JR251 or RBL cells, or both
Format: cell-based
Procedure, shortened: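 FLIPR calcium-entry readout in fluo-4-loaded cells held in Ca2+-free HBSS before calcium add-back. For RBL-2H3, store depletion used thapsigargin for 25 min after a 5 min compound pre-incubation, and IC50 was based on the 7 s Upslope. For Orai1/STIM1 stable cells, compound was pre-incubated 30 min and IC50 was based on Peak-Basal.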

Compound | IC50
NC(=O)c1c(-c2ccc(Br)cc2)csc1-n1c(C(=O)O)nc2ccccc21 [N-(4-(4-bromophenyl)-3-carbamoylthiophen-2-yl)-1H-benzo[d]imidazole-2-carboxylic acid] | < 10 µM
Cc1cccc2ncc(C(=O)Nc3scc(-c4ccc(Cl)cc4)c3C(=O)O)nc12 [4-(4-chlorophenyl)-2-(8-methylquinoxaline-2-carboxamido)thiophene-3-carboxylic acid] | < 10 µM
O=C(O)c1c(-c2ccc(Br)cc2)csc1NC(=O)C1CCc2ccccc2C1 (centres unmarked) [4-(4-bromophenyl)-2-(1,2,3,4-tetrahydronaphthalene-2-carboxamido)thiophene-3-carboxylic acid] | < 10 µM
Cc1ccc(-c2csc(NC(=O)c3sccc3C)c2C(=O)O)cc1C [4-(3,4-dimethylphenyl)-2-(3-methylthiophene-2-carboxamido)thiophene-3-carboxylic acid] | < 10 µM
O=C(Nc1scc(-c2ccc(Cl)cc2)c1C(=O)O)c1ccc2nnsc2c1 [2-(benzo[d][1,2,3]thiadiazole-6-carboxamido)-4-(4-chlorophenyl)thiophene-3-carboxylic acid] | < 10 µM
O=C(Nc1scc(-c2ccc(Br)c(F)c2F)c1C(=O)O)c1cc2ccccc2o1 [2-(benzofuran-2-carboxamido)-4-(4-bromo-2,3-difluorophenyl)thiophene-3-carboxylic acid] | < 10 µM
N#Cc1cc(-c2csc(NC(=O)c3nc4ccccc4o3)c2C(=O)O)ccc1F [2-(benzo[d]oxazole-2-carboxamido)-4-(3-cyano-4-fluorophenyl)thiophene-3-carboxylic acid] | < 10 µM

Other lines, results leading:

IC50 | Compound
< 10 µM | O=C(O)c1c(-c2ccc(Cl)cc2)csc1NC(=O)C(F)Cc1cc(F)ccc1Cl (centres unmarked) [2-(3-(2-chloro-5-fluorophenyl)-2-fluoropropanamido)-4-(4-chlorophenyl)thiophene-3-carboxylic acid]
< 10 µM | CC(C)(C)C(Cc1ccccc1)C(=O)Nc1scc(-c2ccc(Cl)cc2)c1C(=O)O (centres unmarked) [2-(2-benzyl-3,3-dimethylbutanamido)-4-(4-chlorophenyl)thiophene-3-carboxylic acid]
< 10 µM | Cn1cnc(C(=O)Nc2scc(-c3ccc(Cl)cc3)c2C(=O)O)c1 [4-(4-chlorophenyl)-2-(1-methyl-1H-imidazole-4-carboxamido)thiophene-3-carboxylic acid]
< 10 µM | O=C(Nc1scc(-c2ccc(Br)cc2)c1C(=O)O)c1nc2ccccc2s1 [2-(benzo[d]thiazole-2-carboxamido)-4-(4-bromophenyl)thiophene-3-carboxylic acid]
< 10 µM | O=C(Nc1scc(-c2ccc(Cl)cc2)c1C(=O)O)c1ccco1 [4-(4-chlorophenyl)-2-(furan-2-carboxamido)thiophene-3-carboxylic acid]
< 10 µM | O=C(Nc1scc(-c2cc3cccc(O)c3o2)c1C(=O)O)c1ccc2nnsc2c1 [2-(benzo[d][1,2,3]thiadiazole-6-carboxamido)-4-(7-hydroxybenzofuran-2-yl)thiophene-3-carboxylic acid]
< 10 µM | O=C(Cc1cc2ccccc2o1)Nc1scc(-c2ccc(Br)cc2)c1C(=O)O [2-(2-(benzofuran-2-yl)acetamido)-4-(4-bromophenyl)thiophene-3-carboxylic acid]
< 10 µM | Cn1nc(C(=O)Nc2scc(-c3ccc(Cl)cc3)c2C(=O)O)cc1-c1ccco1 [4-(4-chlorophenyl)-2-(5-(furan-2-yl)-1-methyl-1H-pyrazole-3-carboxamido)thiophene-3-carboxylic acid]
< 10 µM | O=C(Nc1scc(-c2cc(F)c(Cl)c(F)c2)c1C(=O)O)c1nc2ccccc2o1 [2-(benzo[d]oxazole-2-carboxamido)-4-(4-chloro-3,5-difluorophenyl)thiophene-3-carboxylic acid]
< 10 µM | Cc1cc(C(=O)Nc2scc(-c3ccc(Cl)cc3)c2C(=O)O)c(C)o1 [4-(4-chlorophenyl)-2-(2,5-dimethylfuran-3-carboxamido)thiophene-3-carboxylic acid]
